What was measured:
[1] = test system: IMP DH; experiment: IMP DH activity in ACI/N rats bearing s.c. transplanted hepatoma 3924A after tiazofurin and subsequent ribavirin; assay type: in vivo, rat
Procedure: In this example, ACI/N rats bearing s.c. transplanted hepatoma 3924A were administered daily i.p. injections of 150 mg/kg tiazofurin (trade name Tiazole, Viratek, Inc.) for two days. The rats were then divided into two groups: one received daily i.p. injections of saline, the other received 100 mg/kg ribavirin (trade name Virazole, Viratek, Inc.) for an additional two days.
Tiazofurin reduced the IMP DH activity to 10% and ribavirin maintained the inhibition of IMP DH activity at 20-30% of the control values. The IMP DH activity in the saline-treated rats returned to the untreated levels. (see FIGS. 1 through 5).

[2] = test system: rat bone marrow; experiment: Ribavirin alone versus tiazofurin, IMP DH activity and cellularity in rat bone marrow (FIGS. 1 and 2); assay type: in vivo; conditions: at lower doses
Description: (see FIGS. 1 and 2). […] Bekesi, J. G. et al., Treatment of Spontaneous Leukemia in AKR Mice with Chemotherapy, Immunotherapy, or Interferon, Cancer Research 36:631-639 (1976).
FIG. 1 is a graph of experimental data showing the effect of Tiazofurin and subsequent Ribavirin treatment on IMP DH activity in rat bone marrow.
FIG. 2 is a graph of experimental data showing the effect of Tiazofuran and subsequent Ribavirin treatment on cellularity in rat bone marrow.

[3] = test system: spontaneous leukemia; conditions: in some cases; Cancer Research 36:631-639 (1976); cited from earlier work

NC(=O)c1csc([C@@H]2O[C@H](CO)[C@@H](O)[C@H]2O)n1 [tiazofurin, 2-β-D-ribofuranosylthiazole-4-carboxamide]
IMP DH activity ([1]; 150 mg/kg tiazofurin daily i.p. for two days, ACI/N rats with hepatoma 3924A): 10%

NC(=O)c1ncn([C@@H]2O[C@H](CO)[C@@H](O)[C@H]2O)n1 [ribavirin, 1-β-D-ribofuranosyl-1,2,4-triazole-3-carboxamide]
IMP DH activity, % of the control values ([1]; 100 mg/kg ribavirin daily i.p. for two more days after two days of tiazofurin 150 mg/kg): 20-30% | effectiveness when administered alone [2]: less effective than tiazofurin | antitumor effect [3]: little or no antitumor effect

Reference: US5405837A, “Method for the treatment of neoplastic disease utilizing tiazofurin and ribavirin” (Indiana University Foundation, priority 1993, dated 1995)
